According to patent US10729643B2, “Methods for administration and methods for treating cardiovascular diseases with resiniferatoxin” (priority 2013, dated 2020):
“Also recorded” adds a separate entry of the source.

Columns and labels:
[1] = system: cardiac sympathetic afferent reflex (CSAR); assay: CSAR activation: cardiovascular and sympathetic responses to epicardial capsaicin or bradykinin; type: in vivo, rat; settings: for cardiovascular responses to acute epicardial application of capsaicin and bradykinin: sham rats
Procedure: (§1) In order to desensitize cardiac sympathetic afferents in rats, resiniferatoxin (RTX, 1 mg; Sigma Aldrich) was dissolved in 2 ml of ethanol and mixed with 18 ml of Tween in isotonic saline. RTX (50 μg/ml) was applied twice on the entire left and right ventricles with a swab just prior to coronary ligation. The dose of RTX was determined by preliminary experiments in which we found nearly complete ablation of TRPV1-expressing cardiac nerve endings on the surface of the rat heart for more than 10 weeks. Rat surgery was performed 9-11 weeks post-MI. Rats were anesthetized with urethane (800 mg/kg ip) and α-chloralose (40 mg/kg ip). Renal sympathetic nerve activity (RSNA) and cardiac sympathetic nerve activity (CSNA) were recorded for evaluating basal renal and cardiac sympathetic tone.
In another parallel set of experiments, we further confirmed the efficiency of RTX-induced TRPV1-expressing CSAR afferent ablation functionally by epicardial application of capsaicin and bradykinin (10 μg/ml) in sham+RTX rats treated with various doses (0.5 μg/ml, 5 μg/ml and 50 μg/ml) and at various time points (1 week, 4-6 weeks, 9-11 weeks and 6 months after RTX). […] Therefore, a higher dose greater than 5 μg/ml should be used for epicardial administration.
To determine activation of the CSAR, epicardial application of capsaicin and bradykinin was used to effectively stimulate the cardiac sympathetic afferents (Zahner et al. J. Physiol. 2003; 551:515-523). The time interval between capsaicin and bradykinin was about 15-20 min to allow the arterial pressure (AP), heart rate (HR) and renal sympathetic nerve activity (RSNA) to return to, and stabilize at their control levels.

post MI rats = assay: Long-term survival of post MI rats; type: in vivo, rat
Source text: This example illustrates effects of RTX on the long-term survival rate of post MI rats. […] Over a 6 month period over 50% of vehicle—treated rats died. This contrasts with under 20% of RTX treated—rats.

sham and CHF rats = assay: In vivo left ventricular PV loop analysis
[2] = system: sham and CHF rats (coronary artery ligation); assay: Hemodynamic, morphological and echocardiographic measurements in sham and CHF rats; type: in vivo, rat; settings: for DAP: diastolic arterial pressure; for HR: heart rate; for HW/BW: heart weight/body weight; for LVEDP: left ventricle end-diastolic pressure; for MAP: mean arterial pressure; for SAP: systolic arterial pressure; for WLW/BW: wet lung weight/body weight
Procedure: as §1
More specifically, we examined TRPV1 protein expression in cardiac nerve endings from vehicle and RTX-treated rats using immunofluorescence. Experiments were performed on male Sprague-Dawley rats weighing […]. In brief, terminal experiments were carried out 9-11 weeks after MI in rats treated with either RTX or vehicle. These experiments were approved by the Institutional Animal Care and Use Committee of the University of Nebraska Medical Center and carried out under the guidelines of the National Institutes of Health Guide for the Care and Use of Laboratory Animals. Heart failure was produced by coronary artery ligation as described in (Wang et al., J. Appl. Physiol. 2010; 108:1365-1375; and Wang et al. 2, Am. J. Physiol. Regul. Integr. Comp. Physiol. 2012; 320:R1260-R1270). Cardiac function in all experimental animals was measured 2 and 6 weeks after MI by echocardiography (VEVO 770, Visual Sonics, Inc.) as described in (Wang et al., J. Appl. Physiol. 2010; 108:1365-1375; Wang et al. 2, Am. J. Physiol. Regul. Integr. Comp. Physiol. 2012; 320:R1260-R1270; and Wang et al. 3, J. Physiol. 2010; 588:5033-5047).
This example illustrates an effect of RTX on body weight, organ weight, and hemodynamics in sham and CHF rats.

[3] = system: non-infarcted LV and IVS walls of sham and CHF rats; assay: Cardiac fibrosis: picrosirius red staining and western blot of fibrotic markers; type: in vivo, rat
Source text: This example illustrates the effects of RTX on cardiac fibrosis in sham and CHF rats. Considering that RTX-mediated reduction in LVEDP in CHF rats may be related to an improvement in cardiac compliance, we further evaluated cardiac fibrosis using picrosirus red staining and protein expression of two fibrotic markers (a smooth muscle actin and fibronectin) as well as their upstream activator, transforming growth factor (TGF) β receptor I in the non-infarcted LV and inter-ventricular septum (IVS) walls from sham and CHF rats treated with either vehicle or RTX. For histopathology, the rat heart was fixed in 10% phosphate buffered formalin, embedded in paraffin, and cut into 10 μm serial sections from apex to base. Picrosirius red staining was performed to detect myocardial fibrosis. Immunohistochemistry staining of cleaved caspase 3 (CC3) was also performed in paraffin sections from the same heart tissues which were used for picrosirius red staining experiments.

[4] = sham and CHF rats, 9-11 weeks after epicardial RTX 50 μg/ml

Question: For `C=C(C)[C@]12C[C@@H](C)[C@@]34O[C@](Cc5ccccc5)(O[C@@H]1[C@@H]3C=C(COC(=O)Cc1ccc(O)c(OC)c1)C[C@]1(O)C(=O)C(C)=C[C@@H]41)O2` [RTX, resiniferatoxin], which “sham rats showing partial recovery of the cardiovascular responses to capsaicin and bradykinin” value ([1]; 10 weeks after epicardial RTX 5 μg/ml, preliminary experiment) is on record?
Answer: The value was 40%.

Question: What about the “duration for which CSAR was abolished” value ([1]; RTX 50 μg/ml applied to the surface of heart) of the same molecule?
Answer: Its value is 9-11 weeks.

Question: What about the “sensitivity to capsaicin and bradykinin” value ([1]; all rats, 10 weeks after epicardial RTX 50 μg/ml) of the same molecule?
Answer: The value was “still insensitive”.

Question: What about the “cardiovascular responses to capsaicin and bradykinin / CSAR sensitivity at 6 months after RTX” value ([1]; epicardial RTX 50 μg/ml, 6 months) of the same molecule?
Answer: The value was “recovery of CSAR sensitivity; also recorded: largely recovered”.

Question: What about the “duration for which cardiovascular responses to capsaicin and bradykinin were abolished” value ([1]; epicardial RTX 50 μg/ml, time course experiments) of the same molecule?
Answer: The value was “more than 10 weeks”.

Question: What about the “bradykinin-induced CSAR activation” value [1, 4] of the same molecule?
Answer: The value was “greatly attenuated”.

Question: And the “cardiovascular and sympathetic activation (MAP, HR, RSNA) in response to epicardial capsaicin” value [1, 4]?
Answer: Its value is “almost completely abolished”.

Question: What about the “cardiovascular responses to acute epicardial application of capsaicin and bradykinin” value ([1]; 1 week after epicardial RTX 5 μg/ml) of the same molecule?
Answer: The value was “largely abolished”.

Question: And the “cardiovascular responses to acute epicardial application of capsaicin and bradykinin” value ([1]; 1 week after epicardial RTX 50 μ/ml)?
Answer: The value was “largely abolished”.

Question: And the “long-term (6 months) survival rates” value (post MI rats; CHF rats, epicardial RTX 50 μg/ml at the time of coronary ligation)?
Answer: The value was “markedly improved”.

Question: And the “rats that died over a 6 month period” value (post MI rats; RTX treated post MI rats (vehicle: over 50%))?
Answer: Its value is “under 20%”.

Question: What about the “basal contractile function (dP/dtmax, PRSW and ESPVR)” value (sham and CHF rats; CHF rats) of the same molecule?
Answer: Its value is “did not have a significant effect”.

Question: And the LV chamber size (sham and CHF rats; CHF+RTX vs CHF+vehicle)?
Answer: Its LV chamber size is “reduction”.

Question: What about the “Tau and LVEDP” value (sham and CHF rats; CHF+RTX vs CHF+vehicle) of the same molecule?
Answer: The value was “reduced”.

Question: What about the dP/dtmin (sham and CHF rats; CHF+RTX vs CHF+vehicle) of the same molecule?
Answer: The dP/dtmin was “increased”.

Question: And the “ventricular stiffness as shown by the EDPVR” value (sham and CHF rats; CHF+RTX vs CHF+vehicle)?
Answer: Its value is “reduced stiffness”.

Question: And the “contractile and relaxation parameters” value (sham and CHF rats; sham rats)?
Answer: The value was “no effect”.

Question: What about the “difference in ejection fraction or fractional shortening” value ([2]; 2 weeks and 6 weeks after MI, CHF+RTX vs CHF+vehicle) of the same molecule?
Answer: Its value is “no significant difference”.

Question: And the DAP ([2]; CHF + RTX (n = 25), mean ± SE)?
Answer: The DAP was 90.8 ± 2.2 mmHg.

Question: What about the Heart weight ([2]; CHF + RTX (n = 25), epicardial RTX 50 μg/ml at coronary ligation, 9-11 weeks post-MI, mean ± SE) of the same molecule?
Answer: Its Heart weight is 1650 ± 49 mg.

Question: What about the HR ([2]; CHF + RTX (n = 25), mean ± SE) of the same molecule?
Answer: Its HR is 348.3 ± 5.5 bpm.

Question: What about the HW/BW ([2]; CHF + RTX (n = 25), mean ± SE) of the same molecule?
Answer: Its HW/BW is 3.8 ± 0.1 mg/g.

Question: What about the LVEDP ([2]; CHF + RTX (n = 25), mean ± SE) of the same molecule?
Answer: Its LVEDP is 8.3 ± 0.7 mmHg.

Question: And the MAP ([2]; CHF + RTX (n = 25), mean ± SE)?
Answer: The MAP was 101.3 ± 2.1 mmHg.

Question: And the Infarct size ([2]; CHF + RTX (n = 25), mean ± SE)?
Answer: Its Infarct size is 39.1 ± 1.2 %.

Question: What about the dp/dtmax ([2]; CHF + RTX (n = 25), mean ± SE) of the same molecule?
Answer: The dp/dtmax was 5446 ± 173.

Question: And the dp/dtmin ([2]; CHF + RTX (n = 25), mean ± SE)?
Answer: The dp/dtmin was −4643 ± 149.

Question: What about the SAP ([2]; CHF + RTX (n = 25), mean ± SE) of the same molecule?
Answer: Its SAP is 120.8 ± 2.3 mmHg.

Question: What about the WLW/BW ([2]; CHF + RTX (n = 25), mean ± SE) of the same molecule?
Answer: The WLW/BW was 5.1 ± 0.2 mg/g.

Question: And the “MI-induced cardiac dilation (LV systolic and diastolic diameters and volumes)” value ([2]; CHF rats, echocardiography)?
Answer: Its value is “significantly reduced”.

Question: What about the “increased LVEDP observed in CHF+vehicle rats” value ([2]; CHF+RTX rats) of the same molecule?
Answer: Its value is “largely prevented”.

Question: What about the “decreased protein expression of in myocardium” value ([2]; CHF+RTX rats, western blot) of the same molecule?
Answer: The value was “partially reversed”.

Question: What about the blunted dp/dtmin ([2]; CHF+RTX vs CHF+vehicle rats) of the same molecule?
Answer: The blunted dp/dtmin was “significantly increased”.

Question: What about the “difference in dp/dtmax at rest” value ([2]; CHF+RTX vs CHF+vehicle rats) of the same molecule?
Answer: Its value is “no significant difference”.

Question: And the “dp/dtmax response to isoproterenol (ISO) stimulation” value ([2]; CHF+RTX vs CHF+vehicle rats)?
Answer: Its value is “significantly greater”.

Question: And the “heart weight and lung weight-to-body weight ratios” value ([2]; CHF+RTX vs CHF+vehicle rats)?
Answer: Its value is “significant decrease”.

Question: What about the “difference in infarct size” value ([2]; CHF+vehicle vs CHF+RTX rats) of the same molecule?
Answer: Its value is “no significant difference”.

Question: And the ejection fraction decrease ([2]; RTX treated rats (summary))?
Answer: Its ejection fraction decrease is “less”.

Question: And the Infarct size ([2]; Sham + RTX (n = 20))?
Answer: Its Infarct size is 0%.

Question: And the DAP ([2]; Sham + RTX (n = 20), mean ± SE)?
Answer: The DAP was 92.8 ± 3.2 mmHg.

Question: And the Heart weight ([2]; Sham + RTX (n = 20), epicardial RTX 50 μg/ml, 9-11 weeks, mean ± SE)?
Answer: Its Heart weight is 1430 ± 30 mg.

Question: And the HR ([2]; Sham + RTX (n = 20), mean ± SE)?
Answer: Its HR is 362.0 ± 6.8 bpm.

Question: What about the HW/BW ([2]; Sham + RTX (n = 20), mean ± SE) of the same molecule?
Answer: The HW/BW was 3.3 ± 0.1 mg/g.

Question: What about the LVEDP ([2]; Sham + RTX (n = 20), mean ± SE) of the same molecule?
Answer: The LVEDP was 4.8 ± 0.4 mmHg.

Question: And the MAP ([2]; Sham + RTX (n = 20), mean ± SE)?
Answer: Its MAP is 105.0 ± 3.1 mmHg.

Question: And the dp/dtmax ([2]; Sham + RTX (n = 20), mean ± SE)?
Answer: Its dp/dtmax is 8601 ± 224.

Question: And the dp/dtmin ([2]; Sham + RTX (n = 20), mean ± SE)?
Answer: The dp/dtmin was −8088 ± 196.

Question: What about the SAP ([2]; Sham + RTX (n = 20), mean ± SE) of the same molecule?
Answer: The SAP was 128.8 ± 2.8 mmHg.

Question: And the WLW/BW ([2]; Sham + RTX (n = 20), mean ± SE)?
Answer: Its WLW/BW is 4.5 ± 0.1 mg/g.

Question: What about the “differences in cardiac morphological, echocardiographic or hemodynamic parameters” value ([2]; sham+vehicle vs sham+RTX rats) of the same molecule?
Answer: Its value is “no significant differences”.

Question: What about the “picrosirus red staining, alpha smooth muscle actin, fibronectin and TGF β receptor I expression” value ([3]; CHF rats) of the same molecule?
Answer: The value was “reduced”.

Question: And the “picrosirus red staining, fibrotic markers and TGF β receptor I” value ([3]; sham rats)?
Answer: Its value is “did not cause any significant change”.
